According to ChEMBL document CHEMBL3046852, “Synthesis and analgesic activity of new pyridine-based heterocyclic derivatives” (2012):
The source made the active and inactive calls. The calls are words filed in the database; no cut-off is given here.

Assays:
[1] = test system: Mus musculus; assay: Analgesic activity in Mus musculus albino (mouse) assessed as latency time at 25 mg/kg, ip after 30 min by tail-flick test; format: functional; conditions: route intraperitoneal
[2] = test system: Mus musculus; assay: Analgesic activity in Mus musculus albino (mouse) assessed as latency time at 25 mg/kg, ip after 30 min by hot-plate test; format: functional; conditions: route intraperitoneal
[3] = test system: Mus musculus; assay: Analgesic activity in Mus musculus albino (mouse) assessed as latency time at 25 mg/kg, ip after 30 min in presence of 2 mg/kg, ip of mecamylamine by tail-flick test; format: functional
[4] = test system: Mus musculus; assay: Analgesic activity in Mus musculus albino (mouse) assessed as inhibition of formalin-induced paw licking behavior in both phases of formalin response at 25 mg/kg, ip administered 30 min before formalin challenge; format: functional, organism-based; design: dose 25 mg/kg
[5] = test system: Mus musculus; assay: Analgesic activity in Mus musculus albino (mouse) assessed as latency time at 17.5 mg/kg, ip after 30 min by tail-flick test; format: functional; conditions: route intraperitoneal
[6] = test system: Mus musculus; assay: Analgesic activity in Mus musculus albino (mouse) assessed as latency time at 17.5 mg/kg, ip after 30 min by hot-plate test; format: functional; conditions: route intraperitoneal

SMILES | Time [1] [s] | Time [2] [s] | Time [3] [s] | Activity [4] | Time [5] [s] | Time [6] [s]
Cc1cc(=O)[nH]n1C(=O)c1cccnc1 | 5.26 | 7.54 |  |  |  | 
Cc1cc(C)n(C(=O)c2cccnc2)n1 | 7.69 | 8.3 | 5.18 | Active |  | 
CC(=O)N1N=C(c2ccncc2)OC1C (stereo not drawn) | 11.03 | 12.93 | 5.14 | Active |  | 
CC(=O)N1N=C(c2cccnc2)OC1c1ccccc1 (stereo not drawn) | 8.44 | 10.03 | 5.13 | Active |  | 
O=[N+]([O-])c1ccccc1-c1nnc(-c2cccnc2)[nH]1 | 6.15 | 8.47 |  |  |  | 
c1ccc(-c2n[nH]c(-c3cccnc3)n2)cc1 | 4.73 | 7.5 |  |  |  | 
Cc1nnc(-c2cccnc2)[nH]1 | 7.99 | 9.65 | 5.17 | Active |  | 
Cc1cc(C)n(C(=O)c2ccncc2)n1 | 6.4 | 8.11 |  |  |  | 
c1ccc(-c2nnc(-c3ccncc3)[nH]2)cc1 | 5.33 | 7.81 |  |  |  | 
CC(=O)N1N=C(c2ccncc2)OC1c1ccccc1 (stereo not drawn) | 6.03 | 7.78 |  |  |  | 
Cc1n[nH]c(-c2ccncc2)n1 | 7.62 | 9.49 | 5.22 | Active |  | 
CC(=O)N1N=C(c2cccnc2)OC1c1ccccc1[N+](=O)[O-] (stereo not drawn) | 4.93 | 7.29 |  |  |  | 
Clc1ccccc1-c1nnc(-c2ccncc2)[nH]1 | 11.2 | 13.12 | 5.12 | Active |  | 
CC(=O)N1N=C(c2cccnc2)OC1C (stereo not drawn) | 8.95 | 10.03 | 5.14 | Active |  | 
CC(C)=CCN1CC[C@@]2(C)c3cc(O)ccc3C[C@@H]1[C@@H]2C (relative stereo) |  |  |  |  | 12.84 | 19.89
O=[N+]([O-])c1ccccc1-c1nnc(-c2ccncc2)[nH]1 | 11.8 | 15.1 | 5.23 | Active |  | 
Cc1cc(=O)[nH]n1C(=O)c1ccncc1 | 5.7 | 7.51 |  |  |  | 
CC(=O)N1N=C(c2cccnc2)OC1c1ccccc1Cl (stereo not drawn) | 5.16 | 7.77 |  |  |  | 
CC(=O)N1N=C(c2ccncc2)OC1c1ccccc1Cl (stereo not drawn) | 6.03 | 7.81 |  |  |  | 
Clc1ccccc1-c1nnc(-c2cccnc2)[nH]1 | 5.53 | 8.55 |  |  |  | 
CC(=O)N1N=C(c2ccncc2)OC1c1ccccc1[N+](=O)[O-] (stereo not drawn) | 4.76 | 7.48 |  |  |  | 
